According to US10774083B2, “Heterocyclic amide compound” (TAKEDA PHARMACEUTICAL COMPANY LIMITED, priority 2016, dated 2020):

Target: T1, human PRS protein (His-Avi-hEPRS (998-1512)) (Homo sapiens, UniProt P07814)
T1 construct: to construct His-Avi-hEPRS (998-1512) expression plasmid; His tag (N); Avi tag (N); TEV cleavage site (ENLYFQG, then S; inferred from the forward primer hEPRS-TEV-NheF) (N); made in house; host or cells: E. coli BL21(DE3)
T1 sequence (P07814 998-1512 limits assumed): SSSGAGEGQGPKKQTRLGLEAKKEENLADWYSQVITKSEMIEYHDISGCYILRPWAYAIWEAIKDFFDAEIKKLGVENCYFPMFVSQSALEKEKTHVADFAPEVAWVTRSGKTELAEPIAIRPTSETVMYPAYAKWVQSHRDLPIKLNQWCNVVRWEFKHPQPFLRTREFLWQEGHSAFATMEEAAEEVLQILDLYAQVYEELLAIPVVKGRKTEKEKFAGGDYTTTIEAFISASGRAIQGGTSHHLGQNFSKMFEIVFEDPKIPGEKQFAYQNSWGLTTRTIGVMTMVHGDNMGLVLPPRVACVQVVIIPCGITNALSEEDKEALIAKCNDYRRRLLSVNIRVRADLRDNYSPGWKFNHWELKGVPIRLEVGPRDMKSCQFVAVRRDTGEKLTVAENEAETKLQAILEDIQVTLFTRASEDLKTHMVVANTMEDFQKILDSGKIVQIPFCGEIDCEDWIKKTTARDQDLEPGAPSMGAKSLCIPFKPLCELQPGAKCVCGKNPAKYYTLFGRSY
Assay: PRS inhibitory activity ([32P]pyrophosphate exchange enzyme assay)
Type: biochemical
Conditions: 300 nM test compound; 0.3 µM
Description: The PRS inhibitory activity of the compounds of the present invention was evaluated by the following method.
An expression plasmid of Catalytic Domain of human EPRS was obtained by PCR using human skeletal muscle cDNA Library (Takara Bio Inc.) as a template and 2 kinds of Primers 5′-[…]-3′ (hEPRS-TEV-NheF) (SEQ ID NO: 1) and 5′-[…]-3′ (hEPRS-St-Not-R) (SEQ ID NO: 2). PCR was performed using PrimeStar GXL DNA Polymerase (Takara Bio Inc.) and included (1) 98° C., 1 min, (2) 35 cycles of 98° C., 10 sec, 65° C., 10 sec, 72° C., 1 min, and (3) reaction at 72° C., 1 min. This was cleaved with Nhe I and Not I (Takara Bio Inc.) and inserted using Ligation High (TOYOBO CO., LTD.) into the Nhe I/Not I site of pET21a (Novagen) with His-Avitag inserted thereinto. This was introduced into ECOS JM109 (NIPPON GENE CO., LTD.) to construct His-Avi-hEPRS (998-1512) expression plasmid.
Recombinant human PRS protein was prepared by transforming the His-Avi-hEPRS (998-1512) expression plasmid prepared above into ECOS Competent E. coli BL21(DE3) (NIPPON GENE CO., LTD.). Escherichia coli obtained by transformation was inoculated into 300 mL of LB medium (1% peptone, 0.5% yeast extract, 0.5% sodium chloride, 0.01% ampicillin) and cultured at 30° C. for 16 hr. The obtained culture medium was transferred into a jar culture tank charged with 6 L of the main fermentation medium (0.3% potassium dihydrogen phosphate, 0.6% disodium hydrogen phosphate, 0.1% ammonium chloride, 0.05% sodium chloride, 0.024% magnesium sulfate, 0.02% NEWPOL LB-625, 1.5% sorbitol, 1.5% casamino acid, 0.5% yeast extract, 0.01% ampicillin) and culturing was started at 37° C., quantity of airflow 5 L/min, stirring rotating speed 400 rpm. At the time point when the turbidity of the culture medium reached about 550 Klett units, the culture temperature was lowered to 16° C., isopropyl-β-D-thiogalactopyranoside (IPTG) was added to the final concentration 0.1 mM, and culturing was performed for another 16 hr to induce expression of human PRS. After completion of culturing, the culture medium was centrifuged at 5,000 rpm for 10 min. The obtained human PRS expressing Escherichia coli was suspended in a buffer containing 50 mM Tris-HCl (pH 8.0), 150 mM NaCl, 1 mM DTT, 5 U/ml Benzonase, 20 mM Imidazole and sonicated using Sonifier (BRANSON). The homogenate was centrifuged (33,000×G, 60 min, Beckman Coulter), the obtained supernatant was subjected to adsorption by passage through Ni-NTA Superflow (QIAGEN) column equilibrated in advance with 50 mM Tris-HCl (pH 8.0), 300 mM NaCl, 1 mM DTT, and elution was performed with a buffer containing 50 mM Tris-HCl (pH 8.0), 300 mM NaCl, 1 mM DTT, 250 mM Imidazole. Furthermore, gel filtration was performed using Superdex200 pg column equilibrated in advance with a buffer containing 50 mM Tris-HCl (pH 8.0), 150 mM NaCl, 1 mM DTT, 10% glycerol to give purified human PRS protein. The protein concentration was measured using BCA Protein Assay Kit (PIERCE) and BSA as the standard.
A test compound was dissolved in 5 μL of an assay buffer (50 mM Tris-HCl (pH 7.5), 20 mM KCl, 1 mM DTT, 0.01% Tween 20) and incubated for 60 min with 5 μL of 40 nM human PRS protein dissolved in the assay buffer containing 40 mM MgCl2. An enzyme reaction of the human PRS protein was started by adding 10 μL of a substrate solution containing 300 μM ATP, 160 μM L-Proline, 400 μM pyrophosphate, [^32P]pyrophosphate (PerkinElmer) prepared to 1 MBq/mL. After incubation at room temperature for 30 min, the reaction was discontinued by adding 50 μL of discontinuation/washing solution (1M HCl, 200 mM sodium pyrophosphate) to the reaction mixture. The reaction solution was transferred to a filter plate (Merck Millipore, Billerica, Mass.) previously added with 200 μL of charcoal solution (0.5% HCl solution containing 10% charcoal (w/v)). […]

| SMILES | inhibitory rate (%) of PRS [%] |
| --- | --- |
| Cn1cc(-c2cc(F)cc(CNC(=O)c3ncnc4nc(C5COCCO5)[nH]c34)c2)cn1 (stereo not drawn) [Example 33, 8-(1,4-dioxan-2-yl)-N-(3-fluoro-5-(1-methyl-1H-pyrazol-4-yl)benzyl)-7H-purine-6-carboxamide] | 99 |
| Cn1cc(-c2cc(F)cc(CNC(=O)c3ncnc4nc(C5COCCO5)[nH]c34)c2)cn1 (stereo not drawn) [Example 34, 8-(1,4-dioxan-2-yl)-N-(3-fluoro-5-(1-methyl-1H-pyrazol-4-yl)benzyl)-7H-purine-6-carboxamide] | 101 |

Same assay, conditions: 300 nM test compound; read-out: inhibitory rate (%) of PRS

| SMILES | inhibition at 0.3 µM [%] |
| --- | --- |
| COc1c(F)cc(-c2cnn(C)c2)cc1CNC(=O)c1ncnc2nc(C3CCCC3)n(C)c12 [Example 6, 8-cyclopentyl-N-(3-fluoro-2-methoxy-5-(1-methyl-1H-pyrazol-4-yl)benzyl)-7-methyl-7H-purine-6-carboxamide] | 79 |
| Cn1cc(-c2cc(F)cc(CNC(=O)c3nc(Cl)nc4nc(C5CCCC5)[nH]c34)c2)cn1 [Example 12, 2-chloro-8-cyclopentyl-N-(3-fluoro-5-(1-methyl-1H-pyrazol-4-yl)benzyl)-7H-purine-6-carboxamide] | 77 |
| Cc1nc(C(=O)NCc2cc(F)cc(-c3cnn(C)c3)c2)c2[nH]c(C3CCCC3)nc2n1 [Example 13, 8-cyclopentyl-N-(3-fluoro-5-(1-methyl-1H-pyrazol-4-yl)benzyl)-2-methyl-7H-purine-6-carboxamide] | 86 |
| Cn1ncc2cccc(CNC(=O)c3ncnc4nc(C5CCCC5)n(C)c34)c21 [Example 21, 8-cyclopentyl-7-methyl-N-((1-methyl-1H-indazol-7-yl)methyl)-7H-purine-6-carboxamide] | 92 |
| Cn1cc(-c2cc(F)cc(CNC(=O)c3ncnc4nc(C5CCS(=O)(=O)C5)[nH]c34)c2)cn1 (stereo not drawn) [Example 28, 8-(1,1-dioxidotetrahydrothiophen-3-yl)-N-(3-fluoro-5-(1-methyl-1H-pyrazol-4-yl)benzyl)-7H-purine-6-carboxamide] | 101 |
| O=C(NCc1cccc(Br)c1)c1nccc2nc(C3CCCC3)[nH]c12 [Example 82, N-(3-bromobenzyl)-2-cyclopentyl-3H-imidazo[4,5-c]pyridine-4-carboxamide] | 98 |
| O=C(NCc1cccc(-c2ccccc2)c1)c1nccc2nc(C3CCCC3)[nH]c12 [Example 83, N-(biphenyl-3-ylmethyl)-2-cyclopentyl-3H-imidazo[4,5-c]pyridine-4-carboxamide] | 98 |
| Cn1c(C2CCCC2)nc2ccnc(C(=O)NCc3ccccc3Cl)c21 [Example 85, N-(2-chlorobenzyl)-2-cyclopentyl-3-methyl-3H-imidazo[4,5-c]pyridine-4-carboxamide] | 97 |
| CC1(c2nc3ccnc(C(=O)NCc4ccccc4Cl)c3[nH]2)CCCC1 [Example 87, N-(2-chlorobenzyl)-2-(1-methylcyclopentyl)-3H-imidazo[4,5-c]pyridine-4-carboxamide] | 74 |
| Cn1ncc2c(CNC(=O)c3nccc4nc(C5CCCC5)[nH]c34)cccc21 [Example 93, 2-cyclopentyl-N-((1-methyl-1H-indazol-4-yl)methyl)-3H-imidazo[4,5-c]pyridine-4-carboxamide] | 91 |
| CC(C)c1nc2ccnc(C(=O)NCc3cc(F)cc(-c4cnn(C)c4)c3)c2[nH]1 [Example 99, N-(3-fluoro-5-(1-methyl-1H-pyrazol-4-yl)benzyl)-2-isopropyl-3H-imidazo[4,5-c]pyridine-4-carboxamide] | 96 |
| Cn1cc(-c2cc(F)cc(CNC(=O)c3nccc4nc(C5CCCC5)n(C5CC5)c34)c2)cn1 [Example 108, 2-cyclopentyl-3-cyclopropyl-N-(3-fluoro-5-(1-methyl-1H-pyrazol-4-yl)benzyl)-3H-imidazo[4,5-c]pyridine-4-carboxamide] | 102 |
| Cn1cc(-c2cc(F)cc(CNC(=O)c3nccc4nc(C5CCCC5)n(CC5CC5)c34)c2)cn1 [Example 114, 2-cyclopentyl-3-(cyclopropylmethyl)-N-(3-fluoro-5-(1-methyl-1H-pyrazol-4-yl)benzyl)-3H-imidazo[4,5-c]pyridine-4-carboxamide] | 101 |
| Cn1cc(-c2cc(F)cc(CNC(=O)c3nccc4nc(C5CCCC5)n(Cc5ccccc5)c34)c2)cn1 [Example 123, 3-benzyl-2-cyclopentyl-N-(3-fluoro-5-(1-methyl-1H-pyrazol-4-yl)benzyl)-3H-imidazo[4,5-c]pyridine-4-carboxamide] | 69 |
| Cn1cc(-c2cc(CNC(=O)c3nccc4nc(C5CCCC5)n(C)c34)ccn2)cn1 [Example 136, 2-cyclopentyl-3-methyl-N-((2-(1-methyl-1H-pyrazol-4-yl)pyridin-4-yl)methyl)-3H-imidazo[4,5-c]pyridine-4-carboxamide] | 77 |
| Cn1cc(-c2ccnc(CNC(=O)c3nccc4nc(C5CCCC5)n(C)c34)n2)cn1 [Example 146, 2-cyclopentyl-3-methyl-N-((4-(1-methyl-1H-pyrazol-4-yl)pyrimidin-2-yl)methyl)-3H-imidazo[4,5-c]pyridine-4-carboxamide] | 78 |
| Cn1cc(-c2cc(F)cc(CNC(=O)c3cc(N4CC[C@@](C#N)(C5CC5)C4=O)ccn3)c2)cn1 [Example 149, 4-((3S)-3-cyano-3-cyclopropyl-2-oxopyrrolidin-1-yl)-N-(3-fluoro-5-(1-methyl-1H-pyrazol-4-yl)benzyl)pyridine-2-carboxamide] | 95 |
| Cn1cc(-c2cc(F)cc(CNC(=O)c3cc(N4CC[C@@](C#N)(C5CC5)C4=O)ccn3)c2)ccc1=O [Example 150, 4-((3S)-3-cyano-3-cyclopropyl-2-oxopyrrolidin-1-yl)-N-(3-fluoro-5-(1-methyl-6-oxo-1,6-dihydropyridin-3-yl)benzyl)pyridine-2-carboxamide] | 87 |
| Cn1cc(-c2csc(CNC(=O)c3cc(N4CC[C@@](C#N)(C5CC5)C4=O)ccn3)c2)cn1 [Example 157, 4-((3S)-3-cyano-3-cyclopropyl-2-oxopyrrolidin-1-yl)-N-((4-(1-methyl-1H-pyrazol-4-yl)-2-thienyl)methyl)pyridine-2-carboxamide] | 85 |
